According to patent publication US20250304623A1, “PEPTIDES FOR INTRACELLULAR DELIVERY” (UNIVERSIDADE DE SANTIAGO DE COMPOSTELA, priority 2022, published 2025):
Starred links: 1 amine or outer side, 2 acyl side, 3 side chain; linkers in the order of their positions; H or OH if unused. Residues, ends and D or L forms follow the SMILES beside them. Groups on a side chain read outwards from the residue. *: point of attachment. Glutaryl = O=C(CCCC(=O)[*:2])[*:1]; NHNH2 = NN*

Experiments:
[1] = test system: A549 cells; assay: EGFP mRNA delivery, robotic library screening, A549; assay type: cell-based
Method: Cells were seeded in a 96 well plate the day before the experiment at a concentration of 50,000 cell/mL (100 μL/w) in DMEM+10% FBS+1% Gln-Abt. For robotic library screening, the delivery of EGFP-mRNA (from TriLink, fully substituted with 5-methoxyuridine, capped and polyadenylated; TriLink, CleanCap® EGFP mRNA (5moU), ref. L-7201) in six different cell lines was performed. Amphiphilic molecule stock solutions were prepared in DMSO as described above and diluted in DMEM to afford a range of concentrations. The solutions of EGFP-mRNA/amphiphilic molecule complexes were freshly prepared prior to the transfection experiments. 35 μL of the corresponding amphiphile were added to 10 μL of a solution of EGFP-mRNA at 10 ng/μL in DMEM. The mixture was shaken for 30 min at room temperature before the addition to the cells. The cell medium was aspirated, and cells were washed with PBS twice. Cells were covered with 39 μL of DMEM and 11 μL of the complex's solution were added to the cells and incubated for 4 h (final concentration of peptide=2.5, 5 and 10 μM; final concentration of EGFP-mRNA=25 ng/well). After the incubation, the medium was replaced by 100 μL of fresh DMEM supplemented with 10% FBS. The total EGFP fluorescence was quantified after 72 h in a well plate reader. Amphiphile transfection efficiency was compared and normalized to Lipofectamine® MessengerMax efficiency (value of 1 in Tables 1-5 and 7; double underlined numbers). All experiments were done in triplicate.
Tables 1-7: RLuc (pDNA) or EGFP (mRNA) expression levels were normalized to Lipofectamine reagents (value=1) and expressed as fold-times signal increase. In the case of siRNA, the siRNA treated cells fluorescence was compared with siMOCK control fluorescence, while Cas9-RNP mediated knockout was measured against the fluorescence of untreated cells. In both siRNA and Cas9-RNP, values are expressed as % fluorescence reduction. Amphiphile concentration was 5 μM in all cases. All experiments were performed in triplicate.
Tables 14-19 show the mean (triplicates) fluorescence intensity measured after the transfection of EGFP mRNA by different amphiphiles at different concentrations in a variety of cell lines. Background fluorescence values, accounted by untreated control cells, were subtracted for processing.

[2] = test system: Hek293 cells expressing EGFP; assay: Cas9-RNP delivery against EGFP (gene editing, plate reader), Hek293; assay type: cell-based
Method: To generate an EGFP expressing HeLa cell line, HeLa cells were transfected with EGFP pDNA (pEGFP-C1, Clontech) and stable transfectants were selected with 400 μg/mL of G-418 (Millipore). Green clones were selected by epifluorescence microscopy and tested for EGFP expression stability through several passages. […] All other EGFP-expressing cell lines were obtained in a similar way from parent non-EGFP-expressing cell lines.
Cells expressing EGFP were seeded in a 96 well plate the day before the experiment at a concentration of 50,000 cell/mL (100 μL/w) in DMEM+10% FBS+1% Gln-Abt. For robotic library screening, the delivery of Cas9-RNP against EGFP (RNP designed to knock-out the gene encoding for the enhanced green fluorescent protein (EGFP)) was performed. For RNP assembly, 9.2 μL of crRNA and 9.2 μL of tracrRNA were mixed in 211.6 μL of Nuclease-Free Duplex Buffer (IDT), incubated for 5 min at 95° C. and slowly cooled at rt (see I. Lostalé-Seijo, et al. Peptide/Cas9 nanostructures for ribonucleoprotein cell membrane transport and gene edition, Chem. Sci., 2017). Cas9 protein was dissolved in DMEM at a final concentration of 4 μM and equal volumes of the RNA complex and Cas9 were mixed and incubated for 5 min at rt. 75 μL of the corresponding amphiphile concentrations were added to 5 μL of RNP at 2 μM. The mixture was shaken for 30 min at room temperature before the addition to the cells. The cell medium was aspirated, and cells were washed twice with PBS. Cells were covered with 30 μL of DMEM and 20 μL of the RNP/amphiphile complexes were added to the cells (final peptide concentrations=2.5, 5 and 10 μM; final Cas9-RNP concentration=50 nM) and incubated for 4 h. After the incubation, the medium was replaced by 100 μL of fresh DMEM supplemented with 10% FBS. The total EGFP fluorescence was quantified after 72 h in a plate reader (FIG. 2, Table 1 (right) and Table 6). All experiments were done in triplicate. […]
Tables 26-31 show the mean (triplicates) percentage of gene editing, accounted by GFP fluorescence intensity decrease (% of reduction), measured after the transfection of Cas9-RNP by different amphiphiles at different concentrations in a variety of cell lines. Background values, accounted by untreated control cells, were subtracted for processing.

Molecule | mean fluorescence intensity (EGFP mRNA) ([1]; Dodecanal, 2.5 μM) | mean fluorescence intensity (EGFP mRNA) ([1]; Dodecanal, 5 μM) | mean fluorescence intensity (EGFP mRNA) ([1]; Dodecanal, 10 μM) | mean fluorescence intensity (EGFP mRNA) ([1]; Myristoleyl, 2.5 μM) | mean fluorescence intensity (EGFP mRNA) ([1]; Myristoleyl, 5 μM) | mean fluorescence intensity (EGFP mRNA) ([1]; Myristoleyl, 10 μM) | mean fluorescence intensity (EGFP mRNA) ([1]; Oleyl, 2.5 μM) | mean fluorescence intensity (EGFP mRNA) ([1]; Oleyl, 5 μM) | mean fluorescence intensity (EGFP mRNA) ([1]; Oleyl, 10 μM) | mean fluorescence intensity (EGFP mRNA) ([1]; Palmitoleyl, 2.5 μM) | mean fluorescence intensity (EGFP mRNA) ([1]; Palmitoleyl, 5 μM) | mean fluorescence intensity (EGFP mRNA) ([1]; Palmitoleyl, 10 μM) | mean fluorescence intensity (EGFP mRNA) ([1]; Petroselinyl, 2.5 μM) | mean fluorescence intensity (EGFP mRNA) ([1]; Petroselinyl, 5 μM) | mean fluorescence intensity (EGFP mRNA) ([1]; Petroselinyl, 10 μM) | percentage of gene editing, GFP fluorescence intensity decrease (% of reduction) ([2]; Myristoleyl, 5 μM) | percentage of gene editing, GFP fluorescence intensity decrease (% of reduction) ([2]; Palmitoleyl, 5 μM) | percentage of gene editing, GFP fluorescence intensity decrease (% of reduction) ([2]; Palmitoleyl, 15 μM) | percentage of gene editing, GFP fluorescence intensity decrease (% of reduction) ([2]; Petroselinyl, 5 μM) | percentage of gene editing, GFP fluorescence intensity decrease (% of reduction) ([2]; Dodecanal, 5 μM) | also measured
CC(=O)N[C@@H](CCCNC(=N)N)C(=O)N[C@@H](CCCCNC(=O)CCCC(=O)NN)C(=O)N[C@@H](Cc1c[nH]cn1)C(=O)N[C@@H](CCCNC(=N)N)C(=O)N[C@@H](CCCCNC(=O)CCCC(=O)NN)C(=O)N[C@@H](CCCCNC(=O)CCCC(=O)NN)C(=O)N[C@@H](Cc1c[nH]cn1)C(N)=O [7.3(L-H), Ac-RK*HRK*K*H-NH2] (Ac-RK([Glutaryl-NHNH2])HRK([Glutaryl-NHNH2])K([Glutaryl-NHNH2])H-NH2) | 570 | 375 | 587 | 19549 | 6729 | 2718 | 12392 | 4708 | 1954 | 52764 | 19296 | 3995 | 9125 | 2712 | −119 | −6% | 23% | −2% | 1% |  | mRNA delivery relative to Lipofectamine MessengerMAX ([1]; palmitoleyl aldehyde): two times better; percentage of gene editing, GFP fluorescence intensity decrease (% of reduction) ([2]; Oleyl, 5 μM): −5%; percentage of gene editing, GFP fluorescence intensity decrease (% of reduction) ([2]; Oleyl, 10 μM): 6%; percentage of gene editing, GFP fluorescence intensity decrease (% of reduction) ([2]; Oleyl, 15 μM): 0%; percentage of gene editing, GFP fluorescence intensity decrease (% of reduction) ([2]; Palmitoleyl, 10 μM): −5%
Ac-RHLK*RHK*RRLK*RH-NH2 (Ac-RHLKRHKRRLKRH-NH2; not fully specified (residues 4, 7, 11); printed as Ac-RHLK*RHK*RRLK*RH-NH2; also: linker on K* not given here) [13(3His)] | 622 | 945 | 453 | 1558 | 1386 | 696 | 1063 | 1233 | 109 | 1138 |  | 65 | 2598 | 1675 | 1017 | −13% | −16% | −47% | 21% | −4% | percentage of gene editing, GFP fluorescence intensity decrease (% of reduction) ([2]; Petroselinyl, 10 μM): 4%; percentage of gene editing, GFP fluorescence intensity decrease (% of reduction) ([2]; Petroselinyl, 15 μM): −13%
Ac-RHLK*RLK*RRLK*RL-NH2 (Ac-RHLKRLKRRLKRL-NH2; not fully specified (residues 4, 7, 11); printed as Ac-RHLK*RLK*RRLK*RL-NH2; also: linker on K* not given here) [13(Arg-His)] | 626 |  |  | 392 |  |  | 886 | 719 | 386 | 1177 | 348 | 437 | 652 | 306 | 151 |  | 1% | −26% | 8% | 21% | percentage of gene editing, GFP fluorescence intensity decrease (% of reduction) ([2]; Myristoleyl, 15 μM): −75%; percentage of gene editing, GFP fluorescence intensity decrease (% of reduction) ([2]; Oleyl, 10 μM): −8%; percentage of gene editing, GFP fluorescence intensity decrease (% of reduction) ([2]; Oleyl, 15 μM): −8%; percentage of gene editing, GFP fluorescence intensity decrease (% of reduction) ([2]; Palmitoleyl, 10 μM): 5%; percentage of gene editing, GFP fluorescence intensity decrease (% of reduction) ([2]; Petroselinyl, 10 μM): −19%; percentage of gene editing, GFP fluorescence intensity decrease (% of reduction) ([2]; Petroselinyl, 15 μM): −44%
Ac-RK*LRK*K*L-NH2 (Ac-RK(NHNH2)LRK(NHNH2)K(NHNH2)L-NH2; not fully specified; printed as Ac-RK*LRK*K*L-NH2; also: K*2,K*5,K*6: native or modified lysine (ε-amide to a linker)) [Peptide 7.3] | 2894 | 4662 | 248 | 4491 | 5378 | 228 | 218 | 1205 | 1046 | 2134 | 3484 |  | 1317 | 6947 | 641 | −20% | 23% | 3% | 29% | −11% | percentage of gene editing, GFP fluorescence intensity decrease (% of reduction) ([2]; Dodecanal, 15 μM): −15%; percentage of gene editing, GFP fluorescence intensity decrease (% of reduction) ([2]; Oleyl, 10 μM): −34%; percentage of gene editing, GFP fluorescence intensity decrease (% of reduction) ([2]; Palmitoleyl, 10 μM): −1%; percentage of gene editing, GFP fluorescence intensity decrease (% of reduction) ([2]; Petroselinyl, 10 μM): 34%; percentage of gene editing, GFP fluorescence intensity decrease (% of reduction) ([2]; Petroselinyl, 15 μM): 23%
Ac-RK*LRRK*L-NH2 (Ac-RK(NHNH2)LRRK(NHNH2)L-NH2; not fully specified; printed as Ac-RK*LRRK*L-NH2; also: K*2,K*6: native or modified lysine (ε-amide to a linker)) [Peptide 7.2] | 428 | −205 | −3 | 1101 | 231 | 123 |  |  |  |  |  |  |  |  |  | −23% |  |  |  | −21% | percentage of gene editing, GFP fluorescence intensity decrease (% of reduction) ([2]; Dodecanal, 15 μM): −29%
